In experiment [1] the test system is Bacillus subtilus ATCC6051. Nature of the experiment: Antibacterial spectrum MIC (Table 7). The experiment is classed as cell-based. As for the experimental part:
(§1) Methicillin-susceptible Staphylococcus aureus (MSSA) NCTC8325 and methicillin-resistant Staphylococcus aureus (MRSA) ATCC43300 were used as bacteria. The bacteria of each type were cultured using Mueller-Hinton Broth (MH-broth, Difco) as a medium. Then, the minimum inhibitory concentration (MIC) of each of the EGCG derivatives was measured by a broth microdilution method in accordance with the Clinical and Laboratory Standards Institute (CLSI) guidelines (hereinafter the same).
(§2) First, each of the EGCG derivatives was dissolved in 100% dimethyl sulfoxide (DMSO, Wako Pure Chemical Industries, Ltd.) so that the concentration thereof became 5120 μg/ml. The resultant solution was diluted with DMSO or sterile distilled water so as to prepare two-fold dilution series of antibacterial agent solutions. […] Each of these antibacterial agent solutions was dispensed to wells of a 96-well plate. The concentration of the EGCG derivative in the antibacterial agent solution dispensed to the wells was set to be 10 times as high as the final concentration. On the other hand, the bacteria were cultured in the MH-broth at 37° C. overnight, and the thus-obtained pre-culture solution was diluted with a new MH-broth so that the concentration thereof in the MH-broth became 10^−4 (10^4-fold dilution), thus preparing a bacterial culture solution of about 1×10^5 CFU/ml (CFU: Colony Forming Unit, the number of viable cells). The bacterial culture solution was further added to each well, and the mixture was cultured at 37° C. for 18 hours. The ratio (volume ratio) between the antibacterial agent solution and the bacterial culture solution added to each well was set to 1:9 (the antibacterial agent solution:the bacterial culture solution), and the volume of the mixture of them per well was set to 100 μl in total. The final concentration of the EGCG derivative in the mixture was set to 8 μg/ml to 512 μg/ml, and the number of viable cells in the mixture was set to about 1×10^5 CFU/ml. Then, after the completion of the culture, the MIC was determined. Also, the turbidity (OD600 nm) was measured using a plate reader so as to identify minor differences.
(§3) Regarding the respective type strains shown in Tables 7 and 8 below, the MIC measurement was performed using the antibacterial agent solutions of Example 2 in the same manner as described in Section (2) of Example 1, except for the following. The antibacterial agent solutions were prepared by dissolving the EGCG derivatives of Example 2 in 100% DMSO and then diluting the resultant mixtures with sterile distilled water. The respective strains were derived from ATCC or NCTC. As Moraxella catarrhalis and Aspergillus fumigatus, clinical isolates thereof without an acquired resistance mechanism were used. For nutrient-rich bacteria, namely, Streptococcus pneumoniae ATCC49619, Streptococcus pyogenes ATCC19615, Streptococcus agalactiae ATCC13813, Moraxella catarrhalis, and Haemophilis influenzae ATCC49766, Strepto Haemo supplement (Eiken Chemical Co., Ltd.) was added to media for culturing them. The MIC measurement with respect to fungi was carried out by a broth microdilution method using a RPMI1640/MOPS (pH 7.0) medium in accordance with CLSI guidelines. About 2×10^3 cells/ml of fungi were inoculated to the medium. After the culture at 35° C. for 24 to 48 hours, the MIC was determined. Also, regarding the antibacterial agent solution of Comparative Example 2, the MIC was measured in the same manner.

The test system of experiment [2] is Enterobacter aerogenes ATCC13048. The experiment can be described thus: Antibacterial spectrum MIC (Table 7). The format is cell-based. As for the experimental part: as §1, §2, §3
Experiment [3] deals with Micrococcus lutus ATCC9341. Nature of the experiment: Antibacterial spectrum MIC (Table 7). The format is cell-based. The procedure: as §1, §2, §3
The subject of experiment [4] is Staphylococcus aureus ATCC43300 (MRSA). Nature of the experiment: Antibacterial spectrum MIC (Table 7). The experiment is classed as cell-based. The procedure:
as §1, §2, §3

Another experiment relates to Neisseria meningitidis. Nature of the experiment: Antibacterial spectrum MIC (Table 7). The format is cell-based. As for the experimental part:
as §1, §2, §3

The test system of experiment [5] is Stenotrophomonas maltophilia ATCC13637. Nature of the experiment: Antibacterial spectrum MIC (Table 7). The format is cell-based. The procedure: as §1, §2, §3
Experiment [6] deals with Escherichia coli ATCC25922. Nature of the experiment: Antibacterial spectrum MIC (Table 7). The experiment is classed as cell-based. The procedure: as §1, §2, §3
The test system of the next experiment is Moraxella catarrhalis. Nature of the experiment: Antibacterial spectrum MIC (Table 7). The experiment is classed as cell-based. The following applies: Moraxella catarrhalis clinical isolate, Strepto Haemo supplement. As for the experimental part:
as §1, §2, §3

Experiment [7] relates to Staphylococcus aureus NCTC8325. Nature of the experiment: Antibacterial spectrum MIC (Table 7). The format is cell-based. The procedure:
as §1, §2, §3

Experiment [8] has as its system Bacillus cereus ATCC14579. The experiment can be described thus: Antibacterial spectrum MIC (Table 7). The format is cell-based. The procedure: as §1, §2, §3
In experiment [9] the test system is Haemophilis influenzae ATCC49766. The experiment can be described thus: Antibacterial spectrum MIC (Table 7). The experiment is classed as cell-based. The following applies: Strepto Haemo supplement. The procedure: as §1, §2, §3
Experiment [10] relates to Klebsiella oxytoca ATCC8724. The experiment can be described thus: Antibacterial spectrum MIC (Table 7). The experiment is classed as cell-based. The procedure:
as §1, §2, §3

The subject of experiment [11] is Neisseria gonorrhoeae ATCC49226. The experiment can be described thus: Antibacterial spectrum MIC (Table 7). The experiment is classed as cell-based. As for the experimental part: as §1, §2, §3
Experiment [12] deals with Staphylococcus epidermis ATCC14990. Nature of the experiment: Antibacterial spectrum MIC (Table 7). The experiment is classed as cell-based. As to conditions: for MIC: Staphylococcus epidermis ATCC14990. The procedure:
as §1, §2, §3

The test system of experiment [13] is Streptococcus pyogenes ATCC19615. Nature of the experiment: Antibacterial spectrum MIC (Table 7). The format is cell-based. The following applies: Strepto Haemo supplement. As for the experimental part: as §1, §2, §3
Experiment [14] concerns Enterobacter cloacae ATCC13047. The experiment can be described thus: Antibacterial spectrum MIC (Table 7). The format is cell-based. As for the experimental part: as §1, §2, §3
The subject of experiment [15] is Enterococcus faecalis ATCC29212. Nature of the experiment: Antibacterial spectrum MIC (Table 7). The format is cell-based. The procedure: as §1, §2, §3
Experiment [16] has as its system Yersinia enterocolitica ATCC9610. Nature of the experiment: Antibacterial spectrum MIC (Table 7). The format is cell-based. As for the experimental part:
as §1, §2, §3

Experiment [17] has as its system Streptococcus pneumoniae ATCC49619. The experiment can be described thus: Antibacterial spectrum MIC (Table 7). The format is cell-based. As to conditions: Strepto Haemo supplement. As for the experimental part:
as §1, §2, §3

Experiment [18] relates to Streptococcus agalactiae ATCC13813. The experiment can be described thus: Antibacterial spectrum MIC (Table 7). The experiment is classed as cell-based. As to conditions: Strepto Haemo supplement. The procedure:
as §1, §2, §3

Experiment [19] relates to Serratia marcescens ATCC13880. Nature of the experiment: Antibacterial spectrum MIC (Table 7). The experiment is classed as cell-based. As for the experimental part: as §1, §2, §3
Experiment [20] concerns MRSA clinical isolate No. 10. The experiment can be described thus: MIC, broth microdilution (Example 2, Table 6). The format is cell-based, Staphylococcus aureus. For orientation: Dilution methods test growth across graded concentrations, often in twofold steps.
Experiment [21] relates to MRSA clinical isolate No. 6. The experiment can be described thus: MIC, broth microdilution (Example 2, Table 6). The experiment is classed as cell-based, Staphylococcus aureus.

Turning to EGCG-palmitate [EGCG-C16], the MIC in [1] came out at 16 µg/mL; in experiment [2] it was 32 µg/mL; in experiment [3], 64 µg/mL; in experiment [4], 32 µg/mL; against Neisseria meningitidis, 16 µg/mL; in experiment [5] it was 32 µg/mL. Further, the MIC in experiment [6] is 64 µg/mL; with Moraxella catarrhalis it was 64 µg/mL; in experiment [7], 16 µg/mL; in experiment [8], 16 µg/mL; in experiment [9] it was 16 µg/mL; in [10], 64 µg/mL. In addition, the MIC was 16 µg/mL in [11]; 32 µg/mL in [12]; 64 µg/mL in [13]; 64 µg/mL in experiment [14]; 16 µg/mL in experiment [15]; 32 µg/mL in experiment [16]. In addition, the MIC is 16 µg/mL in experiment [17]; above 64 µg/mL in experiment [18]; 64 µg/mL in experiment [19]; 16 µg/mL in experiment [20]; 16 µg/mL in [21]. For the same substance, the antibacterial effect result in [12] (Staphylococcus epidermids ATCC14990, comparison among EGCG derivatives) is “strongest antibacterial effect”.

For EGCG-linolate [EGCG-C18DE], the MIC in [1] is 32 µg/mL; in experiment [2] it was 32 µg/mL; in experiment [3] it was 64 µg/mL; in experiment [4], 64 µg/mL; in the experiment on Neisseria meningitidis it was 16 µg/mL; in experiment [5], 32 µg/mL. For the same substance, the MIC in experiment [6] is 64 µg/mL; in the experiment on Moraxella catarrhalis, 64 µg/mL; in experiment [7] it was 16 µg/mL; in experiment [8], 16 µg/mL; in experiment [9] it was 16 µg/mL; in experiment [10], 64 µg/mL. The MIC in experiment [11] was 16 µg/mL; in experiment [12] it was 64 µg/mL; in experiment [13], 64 µg/mL; in [14], 64 µg/mL; in [15] it was 64 µg/mL; in [16] it was 32 µg/mL. In addition, the MIC in experiment [17] was 16 µg/mL; in [18] it was above 64 µg/mL; in experiment [19], 64 µg/mL; in experiment [20], 16 µg/mL; in experiment [21] it was 32 µg/mL.

In the case of EGCG-oleate [EGCG-C18E], the MIC in experiment [1] was 32 µg/mL; in experiment [2] it was 32 µg/mL; in experiment [3], 64 µg/mL; in experiment [4], 64 µg/mL; against Neisseria meningitidis, 16 µg/mL; in [5] it was 32 µg/mL. Also, the MIC in experiment [6] was determined as 64 µg/mL; against Moraxella catarrhalis it was 32 µg/mL; in [7] it was 32 µg/mL; in experiment [8], 32 µg/mL; in [9], 16 µg/mL; in [10], 64 µg/mL. The MIC in experiment [11] was 16 µg/mL; in experiment [12] it was 64 µg/mL; in experiment [13], 64 µg/mL; in experiment [14], 64 µg/mL; in experiment [15], above 64 µg/mL; in experiment [16] it was 32 µg/mL. The MIC in experiment [17] is 16 µg/mL; in [18], above 64 µg/mL; in experiment [19] it was 64 µg/mL; in experiment [20], 16 µg/mL; in experiment [21], 32 µg/mL.

These data come from patent publication US9801850B2, “Antibacterial agent” (OSAKA UNIVERSITY, priority 2009, dated 2017).
